Test results reported in PubChem BioAssay AID328 (DTP/NCI, 2004).
Where “and” joins values, the source holds several entries; their conditions need not be identical. Equal values may be shown once. Toxic doses and inconclusive results are not listed.

System: BDF1 mice, P388 leukemia ip, median survival T/C
Assay: NCI In Vivo Anticancer Drug Screen. Data for tumor model P388 Leukemia (intraperitoneal) in B6D2F1 (BDF1) mice
Details: endpoint: median survival time, higher = longer survival
How it was run: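 Each value expresses how treatment altered survival: treated-mouse outcome over vehicle-mouse outcome, both groups bearing the transplanted tumour.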

[1] = dose: 200.0 mg/kg/injection, schedule: Q04DX003 (ip), vehicle: other
[2] = dose: 25.0 mg/kg/injection, schedule: Q01DX009 (ip), vehicle: saline
[3] = dose: 50.0 mg/kg/injection, schedule: Q01DX009 (ip), vehicle: Klucel (hydroxypropylcellulose) (HPC)
[4] = dose: 50.0 mg/kg/injection, schedule: Q01DX009 (ip), vehicle: saline with Tween-80
[5] = dose: 100.0 mg/kg/injection, schedule: Q01DX009 (ip), vehicle: saline with Tween-80
[6] = dose: 100.0 mg/kg/injection, schedule: Q04DX003 (ip), vehicle: saline with Tween-80
[7] = dose: 200.0 mg/kg/injection, schedule: Q01DX009 (ip), vehicle: saline with Tween-80
[8] = dose: 200.0 mg/kg/injection, schedule: Q04DX003 (ip), vehicle: saline with Tween-80
[9] = dose: 400.0 mg/kg/injection, schedule: Q04DX003 (ip), vehicle: saline with Tween-80
[10] = dose: 400.0 mg/kg/injection, schedule: Q01DX009 (ip), vehicle: saline with Tween-80
[11] = dose: 100.0 mg/kg/injection, schedule: Q04DX003 (ip), vehicle: saline

O=C(N/N=C/c1cccc(Cl)c1)c1ccccc1
T/C (dose: 100.0 mg/kg/injection, schedule: Q04DX003 (ip), vehicle: other): 95 % of control
T/C [1]: 95 % of control
T/C (dose: 400.0 mg/kg/injection, schedule: Q04DX003 (ip), vehicle: other): 113 % of control

OCCN1CCN(CCCN2c3ccccc3Oc3ccc(C(F)(F)F)cc32)CC1
T/C (dose: 15.0 mg/kg/injection, schedule: Q04DX003 (ip), vehicle: saline): 105 % of control
T/C [2]: 104 % of control
T/C (dose: 30.0 mg/kg/injection, schedule: Q04DX003 (ip), vehicle: saline): 115 % of control
T/C [3]: 150 % of control
T/C (dose: 120.0 mg/kg/injection, schedule: Q04DX003 (ip), vehicle: saline): 105 % of control

CC(Br)CNC(=O)c1ccc([N+](=O)[O-])cc1 (stereo unspecified)
T/C (dose: 25.0 mg/kg/injection, schedule: Q04DX003 (ip), vehicle: Klucel (hydroxypropylcellulose) (HPC)): 109 % of control
T/C (dose: 50.0 mg/kg/injection, schedule: Q04DX003 (ip), vehicle: Klucel (hydroxypropylcellulose) (HPC)): 109 % of control
T/C (dose: 100.0 mg/kg/injection, schedule: Q04DX003 (ip), vehicle: Klucel (hydroxypropylcellulose) (HPC)): 100 % of control

c1cc2ccsc2cn1
T/C (dose: 12.5 mg/kg/injection, schedule: Q01DX009 (ip), vehicle: saline with Tween-80): 103 % of control
T/C (dose: 25.0 mg/kg/injection, schedule: Q01DX009 (ip), vehicle: saline with Tween-80): 92 % of control
T/C (dose: 25.0 mg/kg/injection, schedule: Q04DX003 (ip), vehicle: saline with Tween-80): 95 % of control
T/C [4]: 92 % of control
T/C (dose: 50.0 mg/kg/injection, schedule: Q04DX003 (ip), vehicle: saline with Tween-80): 91 % of control

NS(=O)(=O)O
T/C (dose: 12.5 mg/kg/injection, schedule: Q01DX009 (ip), vehicle: saline): 91 % of control
T/C [2]: 87 % of control

O=C1NC2(CCCCCC2)C(=O)N1CN1CCOCC1
T/C (dose: 25.0 mg/kg/injection, schedule: Q04DX003 (ip), vehicle: saline sonified): 90 % of control
T/C (dose: 50.0 mg/kg/injection, schedule: Q04DX003 (ip), vehicle: saline sonified): 95 % of control
T/C (dose: 100.0 mg/kg/injection, schedule: Q04DX003 (ip), vehicle: saline sonified): 104 % of control

Cc1ccc(NC(=O)c2ccc(Cl)cc2)c(Br)c1
T/C (dose: 100.0 mg/kg/injection, schedule: Q01DX001 (ip), vehicle: saline with Tween-80): 100 % of control
T/C (dose: 200.0 mg/kg/injection, schedule: Q01DX001 (ip), vehicle: saline with Tween-80): 109 % of control
T/C (dose: 400.0 mg/kg/injection, schedule: Q01DX001 (ip), vehicle: saline with Tween-80): 100 % of control

O=C(O)c1ccc(-c2ccc(C(=O)O)cc2I)c(I)c1
T/C [4]: 100 % of control
T/C [5]: 96 % of control
T/C [6]: 100 % of control
T/C [7]: 96 % of control
T/C [8]: 100 % of control
T/C [9]: 95 % of control

N#C/C(=C/Cc1ccccc1)Nc1ccccc1
T/C [5]: 100 % of control
T/C [6]: 113 % of control
T/C [7]: 115 % of control
T/C [8]: 118 % of control
T/C [10]: 115 % of control
T/C [9]: 104 % of control

NC(COC(c1ccccc1)(c1ccccc1)c1ccccc1)C(=O)O (stereo unspecified)
T/C [3]: 120 % of control
T/C (dose: 65.0 mg/kg/injection, schedule: Q01DX009 (ip), vehicle: Klucel (hydroxypropylcellulose) (HPC)): 150 % of control
T/C (dose: 85.0 mg/kg/injection, schedule: Q04DX003 (ip), vehicle: other): 120 % of control
T/C (dose: 100.0 mg/kg/injection, schedule: Q01DX009 (ip), vehicle: Klucel (hydroxypropylcellulose) (HPC)): 155 % of control and 160 % of control
T/C [11]: 122 % of control
T/C (dose: 150.0 mg/kg/injection, schedule: Q01DX009 (ip), vehicle: Klucel (hydroxypropylcellulose) (HPC)): 205 % of control
T/C (dose: 200.0 mg/kg/injection, schedule: Q01DX009 (ip), vehicle: Klucel (hydroxypropylcellulose) (HPC)): 90 % of control
T/C [1]: 150 % of control
T/C (dose: 300.0 mg/kg/injection, schedule: Q04DX003 (ip), vehicle: other): 200 % of control

CC(O)CN1CCCC1 (stereo unspecified)
T/C (dose: 50.0 mg/kg/injection, schedule: Q04DX003 (ip), vehicle: saline): 91 % of control
T/C [11]: 104 % of control
T/C (dose: 200.0 mg/kg/injection, schedule: Q04DX003 (ip), vehicle: saline): 104 % of control

Cc1cc(C)c(C#N)c(=O)[nH]1
T/C (dose: 50.0 mg/kg/injection, schedule: Q01DX009 (ip), vehicle: saline): 99 % of control
T/C (dose: 100.0 mg/kg/injection, schedule: Q01DX009 (ip), vehicle: saline): 94 % of control

CCCCC(C)C(=O)CC(SCC)c1ccccc1 (stereo unspecified)
T/C [4]: 103 % of control
T/C [5]: 114 % of control
T/C [7]: 105 % of control

Cc1ccc2c(c1)C(c1ccccc1)(c1ccccc1)OC2=O
T/C [5]: 100 % of control
T/C [7]: 90 % of control
T/C [10]: 100 % of control
